From ChEMBL document CHEMBL1821674, “Design, synthesis and biological evaluation of novel nitroaromatic compounds as potent glutathione reductase inhibitors” (Bioorg Med Chem Lett, 2011)

biological target: T1, Glutathione reductase, mitochondrial (Homo sapiens, UniProt P00390); assay: Inhibition of human erythrocyte Glutathione reductase
T1 sequence (P00390 whole entry): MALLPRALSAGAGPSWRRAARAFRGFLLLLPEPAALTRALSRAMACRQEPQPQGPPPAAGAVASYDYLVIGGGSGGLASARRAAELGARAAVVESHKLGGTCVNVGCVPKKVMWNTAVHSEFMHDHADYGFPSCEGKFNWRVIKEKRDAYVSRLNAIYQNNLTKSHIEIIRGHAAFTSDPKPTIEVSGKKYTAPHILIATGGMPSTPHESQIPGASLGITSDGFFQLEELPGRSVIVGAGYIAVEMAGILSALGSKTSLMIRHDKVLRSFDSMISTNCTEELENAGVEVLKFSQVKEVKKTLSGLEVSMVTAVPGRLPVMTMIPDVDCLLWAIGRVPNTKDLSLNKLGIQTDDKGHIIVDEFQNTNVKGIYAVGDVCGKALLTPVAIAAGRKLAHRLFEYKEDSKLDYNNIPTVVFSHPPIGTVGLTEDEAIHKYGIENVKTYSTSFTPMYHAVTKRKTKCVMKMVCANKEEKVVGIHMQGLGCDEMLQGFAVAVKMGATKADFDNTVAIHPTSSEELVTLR

Row | Structure (SMILES) | IC50 [µM]
1 | O=C(O)CC[C@H](NC(=O)c1ccc([N+](=O)[O-])cc1)C(=O)O | 0.344
2 | CC(C)(C)OC(=O)N[C@@H](CCCCNC(=O)OCc1ccccc1Cl)C(=O)Oc1ccc([N+](=O)[O-])cc1 | 15.4
3 | O=[N+]([O-])c1ccccc1 [NITROBENZENE] | 547
4 | CC[C@H](CO)NCc1ccc([N+](=O)[O-])cc1 | 13.3
5 | COC(=O)C1=C(C)NC(C)=C(C(=O)OC)C1c1ccccc1[N+](=O)[O-] [NIFEDIPINE] | 23.4
6 | NCCCC[C@H](N)C(=O)O [LYSINE] | 61.2
7 | N[C@@H](CCC(=O)O)C(=O)O [GLUTAMIC ACID] | 53.7

biological target: T1, Glutathione reductase, mitochondrial

Row | Structure (SMILES) | Ki [µM]
8 | O=C(O)CC[C@H](NC(=O)c1ccc([N+](=O)[O-])cc1)C(=O)O | 0.211
9 | O=[N+]([O-])c1ccccc1 [NITROBENZENE] | 274
10 | CC[C@H](CO)NCc1ccc([N+](=O)[O-])cc1 | 4.57
11 | COC(=O)C1=C(C)NC(C)=C(C(=O)OC)C1c1ccccc1[N+](=O)[O-] [NIFEDIPINE] | 17.4
12 | NCCCC[C@H](N)C(=O)O [LYSINE] | 54.6
13 | N[C@@H](CCC(=O)O)C(=O)O [GLUTAMIC ACID] | 42.7

biological target: T1, Glutathione reductase, mitochondrial; assay: Non-Competitive inhibition of human erythrocyte Glutathione reductase using GSSG substrate by Lineweaver-Burk plot analysis

Row | Structure (SMILES) | Ki [µM]
14 | CC(C)(C)OC(=O)N[C@@H](CCCCNC(=O)OCc1ccccc1Cl)C(=O)Oc1ccc([N+](=O)[O-])cc1 | 4.16
